Some test systems named below: UO-31 renal; SF-539 CNS; SK-MEL-2 melanoma; KM12 colon; UACC-62 melanoma; PC-3 prostate; MALME-3M melanoma; U251 CNS; T-47D breast; HS 578T breast.
Holding throughout (assay): NCI tumour cell line growth inhibition, 48 h

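Method: 48-hour compound exposure of cells in 96-well plates, five concentrations, linear interpolation of endpoints. GI50 is the concentration that inhibits growth by half. The concentration for full growth arrest is given as TGI.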 Some results are limits rather than exact numbers.

Consider `CCOP(=O)(OCC)/C(C#N)=C/c1cccn1C(C)C`, for which the TGI with UO-31 renal, in the test on SF-539 CNS, with SK-MEL-2 melanoma, in the test on KM12 colon, in the test on UACC-62 melanoma and in the test on PC-3 prostate was above 100 µM each time. The TGI with MALME-3M melanoma, in the test with U251 CNS and in the test on T-47D breast was above 100 µM each time.

On to `OC1c2ccccc2CCC1CN1CCN(CCOC(c2ccc(F)cc2)c2ccc(F)cc2)CC1` (configuration not stated), for which the TGI in the test with SF-539 CNS was 20.1 µM; in the test with SK-MEL-2 melanoma, 36.3 µM; with KM12 colon, above 100 µM; with UACC-62 melanoma, 27.7 µM; with PC-3 prostate it was above 100 µM; in the test with MALME-3M melanoma it was 32.4 µM. The TGI in the test on U251 CNS turned out to be 28.3 µM; with HS 578T breast, 45.8 µM; with T-47D breast, 52.9 µM.

As for `S=C1NC2=C(COc3ccccc32)C(c2ccc(Cl)cc2)N1` (configuration not stated), the TGI came out at 35.1 µM with UO-31 renal; 34.9 µM in the test on SF-539 CNS; 29 µM in the test on SK-MEL-2 melanoma; 32.7 µM with KM12 colon; 34.7 µM in the test with UACC-62 melanoma; 26.2 µM in the test on PC-3 prostate. Moreover, the TGI was found to be 50.4 µM in the test on HS 578T breast and 45 µM with T-47D breast.

As for `c1cc(-c2ccc(-c3ccc(-c4ccc(-c5ccncc5)o4)cc3)o2)ccn1`, the TGI in the test with UO-31 renal is 38 µM; in the test with KM12 colon, 32.2 µM; in the test on UACC-62 melanoma it was 32.9 µM; in the test on PC-3 prostate it was 36.4 µM; in the test with MALME-3M melanoma it was 34.7 µM; in the test on U251 CNS, 35.3 µM. In addition, the TGI in the test on HS 578T breast was above 100 µM; in the test on T-47D breast, 40.9 µM.

With `C=CC(O)(CBr)CCC(Br)C(=C)C` (configuration not stated), the TGI with SF-539 CNS, in the test with SK-MEL-2 melanoma, with KM12 colon, with UACC-62 melanoma, with PC-3 prostate and in the test on MALME-3M melanoma was above 10 µM throughout. Besides, the TGI with U251 CNS, with HS 578T breast and in the test with T-47D breast was above 10 µM throughout.

Regarding `CC1(c2sccc2Cl)CC(c2sccc2Cl)=C(C#N)C(=C(C#N)C#N)N1` (configuration not stated), the TGI was 36.7 µM in the test on SF-539 CNS; 39.3 µM with SK-MEL-2 melanoma; 46 µM in the test on KM12 colon; 32.5 µM in the test with UACC-62 melanoma; 32.8 µM in the test on PC-3 prostate; 32.8 µM in the test on MALME-3M melanoma. For the same compound, the TGI came to 33.8 µM with U251 CNS, 48.5 µM in the test with HS 578T breast and 42.1 µM with T-47D breast.

Turning to `CC(CC(N)C(=O)O)C(=O)O` (configuration not stated), the TGI in the test with UO-31 renal, in the test on SK-MEL-2 melanoma, with KM12 colon, in the test on UACC-62 melanoma, in the test on PC-3 prostate and in the test on MALME-3M melanoma was above 100 µM each time. The TGI in the test with U251 CNS, in the test with HS 578T breast and in the test with T-47D breast was above 100 µM in each case.

For `Cc1nc(SCC(=O)Nc2ccc(Cl)cc2)c2sc(=S)n(-c3ccccc3)c2n1`, the TGI in the test on SF-539 CNS, in the test on SK-MEL-2 melanoma, in the test with KM12 colon, in the test on UACC-62 melanoma, in the test with PC-3 prostate and in the test with MALME-3M melanoma was above 10 µM throughout. For the same compound, the TGI in the test with U251 CNS, in the test on HS 578T breast and in the test on T-47D breast was above 10 µM each time.

In the case of `COc1cc(C(=O)O[C@H](C(=O)NCCCNC(=O)[C@@H](OC(=O)c2cc(OC)cc3c(C)cccc23)[C@]2(C)CO2)[C@]2(C)CO2)c2cccc(C)c2c1`, the GI50 in the test on UO-31 renal was 0.705 µM; with SF-539 CNS, below 0.0268 µM; in the test on SK-MEL-2 melanoma, 0.137 µM; with KM12 colon, 0.101 µM; in the test with UACC-62 melanoma, 0.962 µM; in the test on PC-3 prostate, below 0.0367 µM. The figures for the GI50 in the test on U251 CNS, in the test on HS 578T breast and in the test with T-47D breast were below 0.01 µM, 0.206 µM and 0.0595 µM, respectively. Also, the TGI with UO-31 renal is above 100 µM; with SF-539 CNS, 0.138 µM; in the test with SK-MEL-2 melanoma, 34.6 µM; in the test on KM12 colon, 0.607 µM; in the test with UACC-62 melanoma, 2.14 µM; in the test on PC-3 prostate, 0.477 µM. Further, the results for the TGI with U251 CNS and in the test with T-47D breast were 0.0206 µM and 0.839 µM, respectively.

Regarding `O=[N+]([O-])C(/C=C(\Cl)[N+](=O)[O-])=C1Nc2ccccc2N1`, the TGI in the test on UO-31 renal is above 100 µM; in the test on SF-539 CNS it was 93.3 µM; in the test on KM12 colon, above 100 µM; with UACC-62 melanoma, above 100 µM; with PC-3 prostate, above 100 µM; in the test on MALME-3M melanoma it was above 100 µM. Also, the TGI in the test on U251 CNS was above 100 µM; with HS 578T breast it was above 100 µM; with T-47D breast, 69 µM.

Consider `COc1ccc(/C=C2/CSCC3=C2NC(=S)NC3c2ccc(OC)c(OC)c2OC)c(OC)c1OC` (configuration not stated), for which the TGI in the test with SF-539 CNS amounted to 49.5 µM; in the test with SK-MEL-2 melanoma it was 63.6 µM; in the test with KM12 colon, 34.1 µM; in the test with UACC-62 melanoma, 45 µM; in the test with PC-3 prostate it was 46.2 µM; in the test on MALME-3M melanoma, 78.6 µM. Also, the TGI with U251 CNS, with HS 578T breast and in the test on T-47D breast was above 100 µM throughout.

On to `Cc1ccc(C2(c3ccc(Cl)cc3)c3ccccc3C3=NCCN32)cc1` (configuration not stated), for which the TGI was found to be 18.1 µM in the test with UO-31 renal; 28 µM in the test on SK-MEL-2 melanoma; 22.8 µM in the test on KM12 colon; 20 µM with UACC-62 melanoma; 21.6 µM in the test with PC-3 prostate; 16 µM with MALME-3M melanoma. Also, the TGI in the test with U251 CNS was 29 µM; in the test on HS 578T breast, 33.4 µM; in the test with T-47D breast it was 39.2 µM.

Regarding `NS(=O)(=O)c1nnc(NC(=O)C23CC4CC(CC(C4)C2)C3)s1`, the TGI with UO-31 renal, in the test on SF-539 CNS, in the test on SK-MEL-2 melanoma, with KM12 colon, with UACC-62 melanoma and in the test on MALME-3M melanoma was above 100 µM each time. Besides, the TGI in the test on U251 CNS, with HS 578T breast and with T-47D breast was above 100 µM each time.

Take `COc1cccc(C23CCCC(C2)NCC3Br)c1OC` (configuration not stated): the TGI with UO-31 renal is above 100 µM; in the test with SK-MEL-2 melanoma, above 100 µM; with KM12 colon, above 100 µM; in the test with UACC-62 melanoma it was 58.1 µM; in the test with PC-3 prostate it was above 100 µM; with MALME-3M melanoma, above 100 µM. Besides, the TGI was above 100 µM with U251 CNS, 78.5 µM in the test with HS 578T breast and above 100 µM in the test with T-47D breast.

With `COC(=O)C1CCC(=O)N1C(c1cc(OC)c(OC)c(OC)c1)c1cc(OC)c(OC)c(OC)c1` (configuration not stated), the TGI in the test on UO-31 renal, in the test with SF-539 CNS, in the test on SK-MEL-2 melanoma, with KM12 colon, with UACC-62 melanoma and in the test on PC-3 prostate was above 100 µM in each case. For the same compound, the TGI in the test on U251 CNS, with HS 578T breast and with T-47D breast was above 100 µM each time.

With `CCOC(=O)c1nc2ccc(C(F)(F)F)cc2nc1Nc1cc(OC)c(OC)c(OC)c1`, the TGI in the test with UO-31 renal, in the test on SF-539 CNS, with KM12 colon, in the test on UACC-62 melanoma, in the test on PC-3 prostate and with MALME-3M melanoma was above 100 µM throughout. Besides, the TGI with HS 578T breast and in the test on T-47D breast was above 100 µM in each case.

On to `COc1ccc(/C(C)=N/NC(=O)c2ccncc2)c(OC)c1`, for which the TGI in the test with UO-31 renal, in the test on SF-539 CNS, in the test with KM12 colon, with UACC-62 melanoma, in the test on MALME-3M melanoma and in the test with U251 CNS was above 10 µM each time. Also, the TGI in the test on HS 578T breast and in the test on T-47D breast was above 10 µM each time.

In the case of `CCCCn1c(CSc2ccc(Cl)cc2)c(C(=O)OCC)c2cc(OC)c(Br)cc21`, the TGI with UO-31 renal, in the test with SK-MEL-2 melanoma, in the test on KM12 colon, in the test with UACC-62 melanoma, in the test on PC-3 prostate and in the test on MALME-3M melanoma was above 100 µM in each case. Further, the TGI in the test with U251 CNS, in the test on HS 578T breast and in the test with T-47D breast was above 100 µM throughout.

`COC(=O)C1CCC(=S)N1C(=O)OCc1ccccc1` (configuration not stated): the TGI in the test with UO-31 renal, with SK-MEL-2 melanoma, with KM12 colon, in the test with UACC-62 melanoma, with PC-3 prostate and in the test with MALME-3M melanoma was above 100 µM in each case. Moreover, the TGI in the test with U251 CNS, in the test with HS 578T breast and in the test with T-47D breast was above 100 µM each time.

Consider `O=c1c2ccccc2[nH]n1Cc1ccccc1`, for which the TGI in the test with UO-31 renal, in the test with SF-539 CNS, in the test with SK-MEL-2 melanoma, in the test with KM12 colon, in the test with UACC-62 melanoma and with PC-3 prostate was above 100 µM in each case. Besides, the TGI in the test with U251 CNS, in the test on HS 578T breast and in the test on T-47D breast was above 100 µM in each case.

In the case of `COc1cc(C)c(/C=C2/N=C(c3ccccc3)OC2=O)c([N+](=O)[O-])c1OC`, the TGI with SF-539 CNS, in the test on SK-MEL-2 melanoma, with KM12 colon, in the test on UACC-62 melanoma, in the test on PC-3 prostate and in the test on MALME-3M melanoma was above 100 µM each time. Also, the TGI in the test with U251 CNS and in the test on T-47D breast was above 100 µM throughout.
